Test results from US20250213451A1, “AN ORAL CARE COMPOSITION COMPRISING A GLYCOLIPID AND A MILD SURFACTANT” (priority 2021, published 2025).

Tested on: oral tissue cells based on EpiOral Tissue Model
Experiment: Oral irritation evaluation, EpiOral Tissue Model
Type: cell-based
Method: The oral irritation evaluation was conducted to test the surfactant mildness and oral irritation. The test sample solution was prepared in aqueous solution with 1% active content at pH of 7. The test sample solutions were applied to the oral tissue cells based on EpiOral Tissue Model provided by Mattek Corp. The viability of the cells over time was measured and used to calculate the time of exposure until viability is reduced to 50%, which is indicated by ET-50.

| Molecule | Oral Irritation Classification (aqueous solution with 1% active content at pH of 7, class from ET-50) | ET-50 based on EpiOral Model (aqueous solution with 1% active content at pH of 7, time of exposure until viability is reduced to 50%) | Oral Irritation Classification (pH 7) | ET-50 based on EpiOral Model (pH 7) |
| --- | --- | --- | --- | --- |
| CCCCCCCCCCCCOS(=O)(=O)[O-].[Na+] [Texapon ® OC-N, Sodium Lauryl Sulfate] | Moderately irritation | 116.7 min |  |  |
| PEG-12 [Pluracare ® E-600] |  |  | None to minimal irritation |  |
| Cocamidopropyl Betaine [Dehyton ® PK 45] |  |  | Mildly irritation | 181.0 min |
